Five compounds from the supplement of paper PMC10307832 can be followed below.

The subject of one test is NCI-H2009. The test is described as follows: relative viability (nuclei count vs DMSO), 5 days (fraction); higher = more cells survive. The following applies: first compound 2 µM. In outline: (§1)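 Lung cancer cell lines were seeded in 1536-well plates and dosed by pin tool the next day, with either a single drug or a fixed anchor-drug dose combined with five library-drug doses (not always all listed) spaced in √10 steps. Five days later, one step fixed the cells and stained their nuclei (final 0.05% Triton X-100, 1% formaldehyde, 1 ug/ml Hoechst), and nuclei were counted on 4× images. Relative viability is the nuclei count in treated wells divided by the count in vehicle wells, and each value is the median of duplicate plates.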
In turn, `COCC1(CO)C(=O)C2CCN1CC2` (stereo not given) [PRIMA-1MET] + Nc1ncn([C@H]2C[C@H](O)[C@@H](CO)O2)c(=O)n1 [Decitabine] (partner 2 µM) showed a relative viability of 0.341.

`COCC1(CO)C(=O)C2CCN1CC2` (stereo not given) [PRIMA-1MET] + O=C(c1cc(Cc2n[nH]c(=O)c3ccccc23)ccc1F)N1CCN(C(=O)C2CC2)CC1 [Olaparib] (partner 8 µM) displayed a relative viability of 0.709.

The compound `COCC1(CO)C(=O)C2CCN1CC2` (stereo not given) [PRIMA-1MET] + C[C@@H](Oc1cc(-c2cnn(C3CCNCC3)c2)cnc1N)c1c(Cl)ccc(F)c1Cl [Crizotinib] (partner 1 µM) displayed a relative viability of 1.09.

The test is the same for the next values; noted with them: first compound 6.325 µM.
Take `COCC1(CO)C(=O)C2CCN1CC2` (stereo not given) [PRIMA-1MET] + CC(C)C[C@H](NC(=O)[C@H](Cc1ccccc1)NC(=O)c1cnccn1)B(O)O [Bortezomib] (partner 0.002 µM): the relative viability worked out at 0.975.

For `COCC1(CO)C(=O)C2CCN1CC2` (stereo not given) [PRIMA-1MET] + CC(=O)Nc1cccc(-n2c(=O)n(C3CC3)c(=O)c3c(Nc4ccc(I)cc4F)n(C)c(=O)c(C)c32)c1 [Trametinib] (partner 0.02 µM), the relative viability was 0.252.

In turn, `COCC1(CO)C(=O)C2CCN1CC2` (stereo not given) [PRIMA-1MET] + Nc1ncn([C@H]2C[C@H](O)[C@@H](CO)O2)c(=O)n1 [Decitabine] (partner 2 µM) returned a relative viability of 0.345.

On to `COCC1(CO)C(=O)C2CCN1CC2` (stereo not given) [PRIMA-1MET] + O=C(c1cc(Cc2n[nH]c(=O)c3ccccc23)ccc1F)N1CCN(C(=O)C2CC2)CC1 [Olaparib] (partner 8 µM), for which the relative viability amounted to 0.631.

`COCC1(CO)C(=O)C2CCN1CC2` (stereo not given) [PRIMA-1MET] + C[C@@H](Oc1cc(-c2cnn(C3CCNCC3)c2)cnc1N)c1c(Cl)ccc(F)c1Cl [Crizotinib] (partner 1 µM): the relative viability was found to be 1.05.

The same test, now with this note: first compound 20 µM.
`COCC1(CO)C(=O)C2CCN1CC2` (stereo not given) [PRIMA-1MET] + CC(C)C[C@H](NC(=O)[C@H](Cc1ccccc1)NC(=O)c1cnccn1)B(O)O [Bortezomib] (partner 0.002 µM) displayed a relative viability of 0.0124.

Take `COCC1(CO)C(=O)C2CCN1CC2` (stereo not given) [PRIMA-1MET] + CC(=O)Nc1cccc(-n2c(=O)n(C3CC3)c(=O)c3c(Nc4ccc(I)cc4F)n(C)c(=O)c(C)c32)c1 [Trametinib] (partner 0.02 µM): the relative viability came out at 0.0028.

As to `COCC1(CO)C(=O)C2CCN1CC2` (stereo not given) [PRIMA-1MET] + Nc1ncn([C@H]2C[C@H](O)[C@@H](CO)O2)c(=O)n1 [Decitabine] (partner 2 µM), the relative viability was found to be 0.153.

As for `COCC1(CO)C(=O)C2CCN1CC2` (stereo not given) [PRIMA-1MET] + O=C(c1cc(Cc2n[nH]c(=O)c3ccccc23)ccc1F)N1CCN(C(=O)C2CC2)CC1 [Olaparib] (partner 8 µM), the relative viability was 0.202.

Consider `COCC1(CO)C(=O)C2CCN1CC2` (stereo not given) [PRIMA-1MET] + C[C@@H](Oc1cc(-c2cnn(C3CCNCC3)c2)cnc1N)c1c(Cl)ccc(F)c1Cl [Crizotinib] (partner 1 µM), for which the relative viability came out at 0.295.

Another test concerns NCI-H522. The test is described as above. Conditions: first compound 0.2 µM. The method, boiled down: as §1
The compound `COCC1(CO)C(=O)C2CCN1CC2` (stereo not given) [PRIMA-1MET] + CC(=O)Nc1cccc(-n2c(=O)n(C3CC3)c(=O)c3c(Nc4ccc(I)cc4F)n(C)c(=O)c(C)c32)c1 [Trametinib] (partner 0.02 µM) returned a relative viability of 0.655.

`COCC1(CO)C(=O)C2CCN1CC2` (stereo not given) [PRIMA-1MET] + Nc1ncn([C@H]2C[C@H](O)[C@@H](CO)O2)c(=O)n1 [Decitabine] (partner 2 µM) gave a relative viability of 0.648.

`COCC1(CO)C(=O)C2CCN1CC2` (stereo not given) [PRIMA-1MET] + O=C(c1cc(Cc2n[nH]c(=O)c3ccccc23)ccc1F)N1CCN(C(=O)C2CC2)CC1 [Olaparib] (partner 8 µM) yielded a relative viability of 0.656.

The same test, now with this note: first compound 0.6325 µM.
Compound `COCC1(CO)C(=O)C2CCN1CC2` (stereo not given) [PRIMA-1MET] + CC(=O)Nc1cccc(-n2c(=O)n(C3CC3)c(=O)c3c(Nc4ccc(I)cc4F)n(C)c(=O)c(C)c32)c1 [Trametinib] (partner 0.02 µM) registered a relative viability of 0.673.

The compound `COCC1(CO)C(=O)C2CCN1CC2` (stereo not given) [PRIMA-1MET] + Nc1ncn([C@H]2C[C@H](O)[C@@H](CO)O2)c(=O)n1 [Decitabine] (partner 2 µM) registered a relative viability of 0.592.

Regarding `COCC1(CO)C(=O)C2CCN1CC2` (stereo not given) [PRIMA-1MET] + O=C(c1cc(Cc2n[nH]c(=O)c3ccccc23)ccc1F)N1CCN(C(=O)C2CC2)CC1 [Olaparib] (partner 8 µM), the relative viability is 0.599.

Staying with this test, now noted: first compound 2 µM.
Compound `COCC1(CO)C(=O)C2CCN1CC2` (stereo not given) [PRIMA-1MET] + CC(=O)Nc1cccc(-n2c(=O)n(C3CC3)c(=O)c3c(Nc4ccc(I)cc4F)n(C)c(=O)c(C)c32)c1 [Trametinib] (partner 0.02 µM) returned a relative viability of 0.528.

With `COCC1(CO)C(=O)C2CCN1CC2` (stereo not given) [PRIMA-1MET] + Nc1ncn([C@H]2C[C@H](O)[C@@H](CO)O2)c(=O)n1 [Decitabine] (partner 2 µM), the relative viability is 0.573.

For the compound `COCC1(CO)C(=O)C2CCN1CC2` (stereo not given) [PRIMA-1MET] + O=C(c1cc(Cc2n[nH]c(=O)c3ccccc23)ccc1F)N1CCN(C(=O)C2CC2)CC1 [Olaparib] (partner 8 µM), the relative viability worked out at 0.625.

The same test, now with this note: first compound 6.325 µM.
For `COCC1(CO)C(=O)C2CCN1CC2` (stereo not given) [PRIMA-1MET] + CC(=O)Nc1cccc(-n2c(=O)n(C3CC3)c(=O)c3c(Nc4ccc(I)cc4F)n(C)c(=O)c(C)c32)c1 [Trametinib] (partner 0.02 µM), the relative viability is 0.717.

On to `COCC1(CO)C(=O)C2CCN1CC2` (stereo not given) [PRIMA-1MET] + Nc1ncn([C@H]2C[C@H](O)[C@@H](CO)O2)c(=O)n1 [Decitabine] (partner 2 µM), for which the relative viability stood at 0.672.

The compound `COCC1(CO)C(=O)C2CCN1CC2` (stereo not given) [PRIMA-1MET] + O=C(c1cc(Cc2n[nH]c(=O)c3ccccc23)ccc1F)N1CCN(C(=O)C2CC2)CC1 [Olaparib] (partner 8 µM) returned a relative viability of 0.604.

The same test, now with this note: first compound 20 µM.
`COCC1(CO)C(=O)C2CCN1CC2` (stereo not given) [PRIMA-1MET] + CC(=O)Nc1cccc(-n2c(=O)n(C3CC3)c(=O)c3c(Nc4ccc(I)cc4F)n(C)c(=O)c(C)c32)c1 [Trametinib] (partner 0.02 µM) showed a relative viability of 0.121.

In the case of `COCC1(CO)C(=O)C2CCN1CC2` (stereo not given) [PRIMA-1MET] + Nc1ncn([C@H]2C[C@H](O)[C@@H](CO)O2)c(=O)n1 [Decitabine] (partner 2 µM), the relative viability worked out at 0.178.

As for `COCC1(CO)C(=O)C2CCN1CC2` (stereo not given) [PRIMA-1MET] + O=C(c1cc(Cc2n[nH]c(=O)c3ccccc23)ccc1F)N1CCN(C(=O)C2CC2)CC1 [Olaparib] (partner 8 µM), the relative viability was 0.0709.

Another test has as its system NCI-H2126. The description is as above. The following applies: first compound 0.2 µM. In outline:
as §1
Take `COCC1(CO)C(=O)C2CCN1CC2` (stereo not given) [PRIMA-1MET] + CC(C)C[C@H](NC(=O)[C@H](Cc1ccccc1)NC(=O)c1cnccn1)B(O)O [Bortezomib] (partner 0.002 µM): the relative viability amounted to 1.21.

With `COCC1(CO)C(=O)C2CCN1CC2` (stereo not given) [PRIMA-1MET] + CC(=O)Nc1cccc(-n2c(=O)n(C3CC3)c(=O)c3c(Nc4ccc(I)cc4F)n(C)c(=O)c(C)c32)c1 [Trametinib] (partner 0.02 µM), the relative viability is 0.604.
